Structures can show the parent of a compound that is named as a salt.
Molecular target: T1, Cdc7/Dbf4 complex (Homo sapiens, UniProt O00311)
T1 construct: Full-length Cdc7 co-expressed with full-length Dbf4; purchased Carna Biosciences (Kobe)
Assay: Measurement of Cdc7 kinase inhibitory activity (Transcreener ADP HTRF assay)
Type: biochemical
Conditions: read-out: inhibitory rate (%) at 1 μM
Procedure: Full-length Cdc7 co-expressed with full-length Dbf4 was purchased from Carna Biosciences (Kobe). The enzyme activity of Cdc7/Dbf4 complex was detected by homogeneous time-resolved fluorescence method Transcreener ADP assay (Cisbio Inc., MA, U.S.A.). […] Free ADP produced by ATP hydrolysis was detected by Eu^3+-Cryptate-labeled anti-ADP monoclonal antibody competitively with d2-labeled ADP, and the production amount thereof was measured. The obtained time-resolved fluorescence resonance energy transfer signal was measured by EnVision (Perkin Elmer Inc., MA, U.S.A.). The inhibitory rate (%) of the test compound to Cdc7 was calculated by the following formula. Inhibitory rate(%)=(1−(count of test compound-blank)[…](control-blank))×100
The count of the Cdc7/Dbf4 reaction mixture under compound-free conditions was taken as the control, and that under compound-free and Cdc7/Dbf4-free conditions was taken as the blank.

T1 sequence (O00311 whole entry): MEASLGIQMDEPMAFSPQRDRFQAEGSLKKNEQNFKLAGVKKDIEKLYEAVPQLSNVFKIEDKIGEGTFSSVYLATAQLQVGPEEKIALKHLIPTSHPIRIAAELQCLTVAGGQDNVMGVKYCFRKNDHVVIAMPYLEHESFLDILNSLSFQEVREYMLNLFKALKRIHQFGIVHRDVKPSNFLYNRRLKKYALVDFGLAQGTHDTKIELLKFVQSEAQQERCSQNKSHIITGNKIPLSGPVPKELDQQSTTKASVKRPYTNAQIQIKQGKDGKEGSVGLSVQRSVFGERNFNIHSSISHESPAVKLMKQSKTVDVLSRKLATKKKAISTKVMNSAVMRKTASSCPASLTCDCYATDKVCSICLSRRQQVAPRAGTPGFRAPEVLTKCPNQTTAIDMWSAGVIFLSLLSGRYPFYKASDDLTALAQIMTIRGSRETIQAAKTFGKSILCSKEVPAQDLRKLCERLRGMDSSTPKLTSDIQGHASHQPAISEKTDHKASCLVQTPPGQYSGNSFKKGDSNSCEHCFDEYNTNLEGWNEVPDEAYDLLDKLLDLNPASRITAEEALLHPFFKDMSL
T1 sequence (Q9UBU7 whole entry partner): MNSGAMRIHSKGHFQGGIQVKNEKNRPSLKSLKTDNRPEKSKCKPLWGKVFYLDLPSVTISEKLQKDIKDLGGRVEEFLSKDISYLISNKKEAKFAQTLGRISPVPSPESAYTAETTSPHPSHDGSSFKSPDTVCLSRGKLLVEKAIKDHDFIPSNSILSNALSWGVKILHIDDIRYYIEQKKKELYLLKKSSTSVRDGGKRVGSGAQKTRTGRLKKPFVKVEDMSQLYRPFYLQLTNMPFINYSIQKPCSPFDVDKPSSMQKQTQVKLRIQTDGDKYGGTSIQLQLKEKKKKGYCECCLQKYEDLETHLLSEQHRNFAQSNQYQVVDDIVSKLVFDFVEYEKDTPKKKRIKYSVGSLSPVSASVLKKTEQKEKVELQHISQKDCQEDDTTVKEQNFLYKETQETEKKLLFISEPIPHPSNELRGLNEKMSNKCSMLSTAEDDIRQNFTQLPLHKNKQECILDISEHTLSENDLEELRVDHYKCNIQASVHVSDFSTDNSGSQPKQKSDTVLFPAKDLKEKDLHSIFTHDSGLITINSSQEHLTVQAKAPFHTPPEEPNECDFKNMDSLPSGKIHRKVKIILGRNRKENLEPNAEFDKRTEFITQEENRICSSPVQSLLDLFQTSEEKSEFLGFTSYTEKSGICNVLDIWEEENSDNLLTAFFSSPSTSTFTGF

| Structure (SMILES) | inhibition at 1 µM [%] |
| --- | --- |
| Cc1[nH]ncc1-c1cc2nc([C@@H]3CCCN3C)[nH]c(=O)c2s1 [Example 88, 6-(5-methyl-1H-pyrazol-4-yl)-2-[(2S)-1-methylpyrrolidin-2-yl]thieno[3,2-d]pyrimidin-4 (3H)-one dihydrochloride] | 101 |
| Cc1[nH]ncc1-c1cc2nc([C@@H]3CCC(C)(C)N3)[nH]c(=O)c2s1 [Example 76, 2-[(2S)-5,5-dimethylpyrrolidin-2-yl]-6-(5-methyl-1H-pyrazol-4-yl)thieno[3,2-d]pyrimidin-4 (3H)-one] | 106 |
| Cc1[nH]ncc1-c1cc2nc(C34CC(CN3)C4)[nH]c(=O)c2s1 [Example 148, 2-(2-azabicyclo[2.1.1]hex-1-yl)-6-(5-methyl-1H-pyrazol-4-yl)thieno[3,2-d]pyrimidin-4 (3H)-one hydrochloride] | 102 |
| Cc1[nH]ncc1-c1cc2nc([C@@H]3C[C@H](C)CN3)[nH]c(=O)c2s1 [Example 92, 6-(5-methyl-1H-pyrazol-4-yl)-2-[(2S,4S)-4-methylpyrrolidin-2-yl]thieno[3,2-d]pyrimidin-4 (3H)-one dihydrochloride] | 108 |
| Cc1[nH]ncc1-c1cc2nc([C@@H]3CCCCCN3)[nH]c(=O)c2s1 [Example 102, 2-[(2S)-azepan-2-yl]-6-(5-methyl-1H-pyrazol-4-yl)thieno[3,2-d]pyrimidin-4 (3H)-one] | 95.9 |
| Cc1[nH]ncc1-c1cc2nc([C@H]3CCCCCN3)[nH]c(=O)c2s1 [Example 101, 2-[(2R)-azepan-2-yl]-6-(5-methyl-1H-pyrazol-4-yl)thieno[3,2-d]pyrimidin-4 (3H)-one] | 96.2 |
| Cc1[nH]ncc1-c1cc2nc([C@@H]3CCN3)[nH]c(=O)c2s1 [Example 77, 2-[(2S)-azetidin-2-yl]-6-(5-methyl-1H-pyrazol-4-yl)thieno[3,2-d]pyrimidin-4 (3H)-one] | 108 |
| Cc1[nH]ncc1-c1cc2nc(C3CCCCCN3)[nH]c(=O)c2s1 (stereo not drawn) [Example 79, 2-(azepan-2-yl)-6-(5-methyl-1H-pyrazol-4-yl)thieno[3,2-d]pyrimidin-4 (3H)-one] | 93.3 |

Same assay, conditions: read-out: inhibitory rate (%) at 1 μM, test compound 1 μM; Cdc7/Dbf4, 1.0 μm ATP, 10 μg/ml MCM2

| inhibition at 1 µM [%] | Structure (SMILES) |
| --- | --- |
| 108 | Cc1[nH]ncc1-c1cc2nc([C@H]3CC=CCN3)[nH]c(=O)c2s1 [Example 146, 6-(5-methyl-1H-pyrazol-4-yl)-2-[(2R)-1,2,3,6-tetrahydropyridin-2-yl]thieno[3,2-d]pyrimidin-4 (3H)-one dihydrochloride] |
| 103 | Cc1[nH]ncc1-c1cc2nc([C@H]3CCCCN3)[nH]c(=O)c2s1 [Example 85, 6-(5-methyl-1H-pyrazol-4-yl)-2-[(2R)-piperidin-2-yl]thieno[3,2-d]pyrimidin-4 (3H)-one dihydrochloride] |
| 105 | Cc1[nH]ncc1-c1cc2nc(C3(C)CCCN3)[nH]c(=O)c2s1 (stereo not drawn) [Example 82, 6-(5-methyl-1H-pyrazol-4-yl)-2-(2-methylpyrrolidin-2-yl)thieno[3,2-d]pyrimidin-4 (3H)-one dihydrochloride] |

Same assay, conditions: test compound 1 μM; Cdc7/Dbf4, 1.0 μm ATP, 10 μg/ml MCM2; 1 µM

| inhibitory rate (%) at 1 μM [%] | Structure (SMILES) |
| --- | --- |
| 104 | Cc1[nH]ncc1-c1cc2nc([C@@H]3CCCCN3)[nH]c(=O)c2s1 [Example 174, 6-(5-methyl-1H-pyrazol-4-yl)-2-[(2S)-piperidin-2-yl]thieno[3,2-d]pyrimidin-4 (3H)-one] |

Same assay, conditions: test compound 1 μM; Cdc7/Dbf4, 1.0 μm ATP, 10 μg/ml MCM2; hydrochloride, 1 µM

| inhibitory rate (%) at 1 μM [%] | Structure (SMILES) |
| --- | --- |
| 102 | Cc1[nH]ncc1-c1cc2nc([C@@H]3CCCCN3)[nH]c(=O)c2s1 [Example 172, 6-(5-methyl-1H-pyrazol-4-yl)-2-[(2S)-piperidin-2-yl]thieno[3,2-d]pyrimidin-4 (3H)-one hydrochloride] |

Same assay, conditions: test compound 1 μM; Cdc7/Dbf4, 1.0 μm ATP, 10 μg/ml MCM2; read-out: inhibitory rate (%) at 1 μM

| Structure (SMILES) | inhibition at 1 µM [%] |
| --- | --- |
| Cc1[nH]ncc1-c1cc2nc([C@H]3NC[C@@H]4C[C@@H]43)[nH]c(=O)c2s1 (relative stereo) [Example 110, 2-[(1S*,2S*,5R*)-3-azabicyclo[3.1.0]hex-2-yl]-6-(5-methyl-1H-pyrazol-4-yl)thieno[3,2-d]pyrimidin-4 (3H)-one dihydrochloride] | 100 |
| Cc1[nH]ncc1-c1cc2nc([C@H]3NC4CCC3CC4)[nH]c(=O)c2s1 [Example 108, 2-[(3S)-2-azabicyclo[2.2.2]oct-3-yl]-6-(5-methyl-1H-pyrazol-4-yl)thieno[3,2-d]pyrimidin-4 (3H)-one dihydrochloride] | 103 |
| Cc1[nH]ncc1-c1cc2nc([C@@H]3NC[C@@H]4C[C@@H]43)[nH]c(=O)c2s1 [Example 112, 2-[(1S,2R,5R)-3-azabicyclo[3.1.0]hex-2-yl]-6-(5-methyl-1H-pyrazol-4-yl)thieno[3,2-d]pyrimidin-4 (3H)-one dihydrochloride] | 105 |
| Cc1[nH]ncc1-c1cc2nc([C@]34C[C@H]3CCN4)[nH]c(=O)c2s1 [Example 157, 2-[(1S,5R)-2-azabicyclo[3.1.0]hex-1-yl]-6-(5-methyl-1H-pyrazol-4-yl)thieno[3,2-d]pyrimidin-4 (3H)-one dihydrochloride] | 92 |
| Cc1[nH]ncc1-c1cc2nc(C3C[C@@H]4CCC[C@@H]4N3)[nH]c(=O)c2s1 (stereo partly drawn) [Example 123, 6-(5-methyl-1H-pyrazol-4-yl)-2-[(3aS,6aS)-octahydrocyclopenta[b]pyrrol-2-yl]thieno[3,2-d]pyrimidin-4 (3H)-one] | 97 |

Next, values leading:

| inhibition at 1 µM [%] | Structure (SMILES) |
| --- | --- |
| 101 | Cc1[nH]ncc1-c1cc2nc([C@H]3CC4CCN3CC4)[nH]c(=O)c2s1 [Example 164, 2-[(2R)-1-azabicyclo[2.2.2]oct-2-yl]-6-(5-methyl-1H-pyrazol-4-yl)thieno[3,2-d]pyrimidin-4 (3H)-one trifluoroacetate] |
| 97 | Cc1[nH]ncc1-c1cc2nc(C3CCCC3N)[nH]c(=O)c2s1 (single isomer, unassigned) [Example 137, 2-(2-aminocyclopentyl)-6-(5-methyl-1H-pyrazol-4-yl)thieno[3,2-d]pyrimidin-4 (3H)-one dihydrochloride] |
| 102 | Cc1[nH]ncc1-c1cc2nc(CN3CC[C@H](F)C3)[nH]c(=O)c2s1 [Example 4, 2-{[(3S)-3-fluoropyrrolidin-1-yl]methyl}-6-(5-methyl-1H-pyrazol-4-yl)thieno[3,2-d]pyrimidin-4 (3H)-one] |
| 97 | Cc1[nH]ncc1-c1cc2nc(-c3ccccc3Cl)[nH]c(=O)c2s1 [Example 1, 2-(2-chlorophenyl)-6-(5-methyl-1H-pyrazol-4-yl)thieno[3,2-d]pyrimidin-4 (3H)-one] |
| 111 | Cc1[nH]ncc1-c1cc2nc(C(C)(C)N)[nH]c(=O)c2s1 [Example 135, 2-(1-amino-1-methylethyl)-6-(5-methyl-1H-pyrazol-4-yl)thieno[3,2-d]pyrimidin-4 (3H)-one dihydrochloride] |
| 102 | Cc1[nH]ncc1-c1cc2nc(C3COCCN3)[nH]c(=O)c2s1 (stereo not drawn) [Example 72, 6-(5-methyl-1H-pyrazol-4-yl)-2-(morpholin-3-yl)thieno[3,2-d]pyrimidin-4 (3H)-one dihydrochloride] |
| 107 | CNCc1nc2cc(-c3cn[nH]c3C)sc2c(=O)[nH]1 [Example 133, 2-[(methylamino)methyl]-6-(5-methyl-1H-pyrazol-4-yl)thieno[3,2-d]pyrimidin-4 (3H)-one dihydrochloride] |
| 108 | Cc1[nH]ncc1-c1cc2nc([C@H]3CCCC[C@@H]3N)[nH]c(=O)c2s1 (relative stereo) [Example 129, 2-[(1R*,2R*)-2-aminocyclohexyl]-6-(5-methyl-1H-pyrazol-4-yl)thieno[3,2-d]pyrimidin-4 (3H)-one dihydrochloride] |
| 104 | CCc1[nH]ncc1-c1cc2nc([C@@H]3CCCCN3)[nH]c(=O)c2s1 [Example 162, 6-(5-ethyl-1H-pyrazol-4-yl)-2-[(2S)-piperidin-2-yl]thieno[3,2-d]pyrimidin-4 (3H)-one dihydrochloride] |
